From ChEMBL document CHEMBL5131493, “Synthesis and evaluation of RNase L-binding 2-aminothiophenes as anticancer agents” (Bioorg Med Chem, 2022) come the findings set out here.

One assay relates to MCF7. The experiment in a line: Antiproliferative activity against human MCF7 cells assessed as cell growth inhibition incubated for 72 hrs by MTT assay. Particulars: MCF7, 72 h. The format is functional, cell-based.
Assay [1] concerns JAR. The experiment in a line: Inhibition of cell migration in human JAR cells at 5 uM measured after 72 hrs by scratch wound healing assay relative to control. The format is functional.
In assay [2] the test system is JAR. The experiment in a line: Induction of apoptosis in human JAR cells assessed as fold increase in PARP cleavage at 5 to10 uM incubated for 24 hrs by Western blot analysis. The format is functional. Conditions: dose 10 µM.
The subject of a further assay is A549. The experiment in a line: Antiproliferative activity against human A549 cells assessed as cell growth inhibition incubated for 72 hrs by MTT assay. The format is functional, cell-based. Conditions: A549, 72 h.
The test system of assay [3] is JAR. The experiment in a line: Induction of apoptosis in human JAR cells assessed as late apoptotic cells at 10 uM measured after 72 hrs by Annexin V-FITC/PI staining based flow cytometry (reference value: 11.67%). The format is functional.
The test system of assay [4] is JAR. The experiment in a line: Induction of apoptosis in human JAR cells assessed as early apoptotic cells at 10 uM measured after 72 hrs by Annexin V-FITC/PI staining based flow cytometry (reference value: 8.24%). The format is functional.
Assay [5] deals with JAR. The experiment in a line: Induction of apoptosis in human JAR cells assessed as early apoptotic cells at 5 uM measured after 72 hrs by Annexin V-FITC/PI staining based flow cytometry (reference value: 8.24%). The format is functional.
Assay [6] concerns JAR. The experiment in a line: Induction of apoptosis in human JAR cells assessed as necrotic cells at 5 uM measured after 72 hrs by Annexin V-FITC/PI staining based flow cytometry (reference value: 0.22%). The format is functional.
The subject of assay [7] is JAR. The experiment in a line: Induction of apoptosis in human JAR cells assessed as necrotic cells at 10 uM measured after 72 hrs by Annexin V-FITC/PI staining based flow cytometry (reference value: 0.22%). The format is functional.
Assay [8] has as its system JAR. The experiment in a line: Antiproliferative activity against human JAR cells assessed as cell growth inhibition incubated for 72 hrs by MTT assay. The format is functional, cell-based.
Assay [9] relates to JAR. The experiment in a line: Induction of apoptosis in human JAR cells assessed as late apoptotic cells at 5 uM measured after 72 hrs by Annexin V-FITC/PI staining based flow cytometry (reference value: 11.67%). The format is functional.
The subject of assay [10] is JAR. The experiment in a line: Induction of apoptosis in human JAR cells assessed as live cells at 5 uM measured after 72 hrs by Annexin V-FITC/PI staining based flow cytometry (reference value: 79.87%). The format is functional.
For assay [11], the system named is JAR. The experiment in a line: Inhibition of colony formation in human JAR cells measured after 3 days by Giemsa staining based microscopic analysis. The format is functional, cell-based. Particulars: time 3.0 day, DDE = dose-dependent effect.
Assay [12] deals with JAR. The experiment in a line: Inhibition of colony formation in human JAR cells assessed as cell reproductive death at upto 5 uM measured after 3 days by Giemsa staining based microscopic analysis. The format is functional. Conditions: time 3.0 day.
In assay [13] the test system is JAR. The experiment in a line: Antiproliferative activity against human JAR cells assessed as cell growth inhibition at 10 uM incubated for 72 hrs by MTT assay relative to control. The format is functional.
Assay [14] relates to JAR. The experiment in a line: Induction of apoptosis in human JAR cells assessed as live cells at 10 uM measured after 72 hrs by Annexin V-FITC/PI staining based flow cytometry (reference value: 79.87%). The format is functional.
The test system of another assay is K562. The experiment in a line: Antiproliferative activity against human K562 cells assessed as cell growth inhibition incubated for 72 hrs by MTT assay. The format is functional, cell-based. Particulars: K562, 72 h.
Assay [15] relates to JAR. The experiment in a line: Induction of apoptosis in human JAR cells assessed as fold increase in cleaved PARP level at 10 uM incubated for 24 hrs by Western blot analysis. The format is functional.
For the next assay, the species on record is Homo sapiens. The experiment in a line: Binding affinity to RNase L (unknown origin) expressed in Escherichia coli BL21 (DE3) assessed as thermal stability by measuring melting temperature at 60 uM incubated for 50 mins by NanoDSF analysis.

The source made the active and inactive calls. The rule behind the calls is not given here.

Take `CCOC(=O)C1=C(Nc2ccccc2)S/C(=C\c2ccc(F)c(C#N)c2)C1=O`: the half-maximal inhibitory concentration (IC50) was 5.2 µM in the assay on MCF7, 8 µM in the assay with A549, 1.5 µM in the assay with JAR [8] and 1.6 µM with K562. Besides, 5 µM produced 85% inhibition with JAR [1]. Moreover, the “fold change (FC)” value with JAR [2] and in the assay with JAR [15] was more than 2 throughout. For the same compound, the Activity in the assay with JAR [3] is recorded as 55.7%; in the assay with JAR [4], 5.06%; with JAR [5], 23.02%; in the assay on JAR [6], 1.88%; in the assay with JAR [7], 6.8%; with JAR [9], 27.47%. For the same compound, the figures for the Activity in the assay on JAR [10] and in the assay with JAR [14] were 47.62% and 32.48%, respectively. Also, the inhibition entry in the assay with JAR [11] was “Dde”. Moreover, the inhibition entry in the assay with JAR [12] is “Active”. Moreover, the inhibition at 10 µM in the assay with JAR [13] amounted to 99.9%. In addition, the ΔTm in the assay filed under Homo sapiens turned out to be 0.8 °C.
